Values after ≈ are worked out from the molar mass of the structure shown.
Legend:
[1] = test system: Brown trout; experiment: Laboratory fish toxicity test (Table 1); type: in vivo, Salmo trutta; conditions: tech, 12 C, soft water
Procedure: (§1) Fish were obtained from state and federal hatcheries and maintained prior to testing by a trained fish culturist. Fish of total length 2-5 cm were used in laboratory tests while for outdoor tests small fish (4-6 cm in length) and larger carp and buffalo (Ictiobus cyprinellus) were used.
(§2) In all tests 10 fish of each were exposed to selective concentrations of the toxicant. Mortalities were observed and recorded at 1,2 and 6 hours on the first day and once daily thereafter, during 96 hour exposure.
(§3) Laboratory tests were also conducted in soft water 12° C. wherein the toxicant was evaluated against fifteen species of fish including both cold and warm water varieties. In Table 1, the LC 50 toxicity values for N-(2-hydroxyethyl) digeranylamine is shown for various species. LC50 is defined as the amount (mg/liter) of toxicant required to kill 50 percent of the particular fish species at 95% confidence interval.

[2] = test system: Lake trout; experiment: Laboratory fish toxicity test (Table 1); type: in vivo, Salvelinus namaycush; conditions: tech, 12 C, soft water
Procedure: as §1, §2, §3

[3] = test system: Largermouth bass; experiment: Laboratory fish toxicity test (Table 1); type: in vivo, Micropterus salmoides; conditions: tech, 12 C, soft water
Procedure: as §1, §2, §3

[4] = test system: Aquatic olgochaete; experiment: Static bioassay in invertebrates (Table 2); type: in vivo; conditions: Tubifex tubifex, tech, 17 C, limed spring water 22-36 mg/l hardness
Procedure: (§4) The effect of the various toxicants on common invertebrate species was determined in a static test conducted 17° C. The invertebrates tested were collected from natural populations or purchased from commercial suppliers. They were held in soft water in fiberglass tanks in the laboratory or in outdoor plastic swimming pools. Mortality was observed during holding, and only healthy organisms were used for the toxicity tests. At least 10 organisms of nine species were exposed to each concentration in static tests.

[5] = test system: Snail (Physa sp.); experiment: Static bioassay in invertebrates (Table 2); type: in vivo; conditions: tech, 17 C, limed spring water 22-36 mg/l hardness
Procedure: as §4

[6] = test system: Water flea; experiment: Static bioassay in invertebrates (Table 2); type: in vivo; conditions: Daphnia magna, tech, 17 C, limed spring water 22-36 mg/l hardness
Procedure: as §4

[7] = test system: Fathead minnow; experiment: Outdoor plastic pool test (Table 3); type: in vivo, Pimephales promelas; conditions: for % kill: 96 hour, 50% formulation (hydrochloride salt)
Procedure: (§5) N-(2-hydroxyethyl) digeranylamine was tested as a selective fish toxicant in outdoor pools stocked with various fish species and lined with black plastic using 50% water soluble formulations (hydrochloride salt). The formulation was added to each of four pools of 4,000-liter capacity at concentrations of 0.10, 0.15, 0.20, and 0.30 mg/liter. Another pool containing the same number, size, and species of fish served as a control. The test water had algal blooms, a pH of about 8.5, and a total hardness of about 200 mg/liter as CaCo3. The temperature was cool enough (15°-16°C.) to permit the use of trout.
as §1, §2
(§6) Outdoor pool tests were conducted using 50% formulation of the toxicant N-(2-hydroxyethyl) digeranylamine as indicated in Example 8. […] If selective control of white sucker and common carp is desired in an environment which includes rainbow trout, one should employ an effective concentration of toxicant which is at least as great as 0.05 mg/liter but less than 0.1 mg/liter. As a practical fishery practice in the northern United States and Canada, rainbow trout are not usually stocked in bodies of water containing the common carp species; the habitat conditions including water temperature and available oxygen of these species are usually quite different. Common carp and rainbow trout have quite different oxygen and temperature requirements and these differences generally preclude both species cohabitating under natural conditions. In this case the useful range to control common carp and white sucker can be much broader, i.e. 0.1 to 0.3 mg/liter.

[8] = test system: Channel catfish; experiment: Outdoor plastic pool test (Table 3); type: in vivo, Ictalurus punctatus; conditions: for % kill: 96 hour, 50% formulation (hydrochloride salt)
Procedure: as §5, §1, §2, §6

[9] = test system: Yellow perch; experiment: Outdoor plastic pool test (Table 3); type: in vivo, Perca flavescens; conditions: for % kill: 96 hour, 50% formulation (hydrochloride salt)
Procedure: as §5, §1, §2, §6

[10] = test system: Chinook, coho salmon, rainbow trout, goldfish, fathead, minnow, banded killfish, and walleye; experiment: Relative resistance of fish species in laboratory tests; type: in vivo; conditions: soft water, 12 C
Procedure: as §3

CC(C)=CCC/C(C)=C/CN(C/C=C(\C)CCC=C(C)C)CCO [N-(2-hydroxyethyl) digeranylamine]
LC50 ([1]; 3 hours): 0.0955 µg/mL (≈ 0.286 µM) | LC50 ([1]; 6 hours): 0.0742 µg/mL (≈ 0.222 µM) | LC50 ([1]; 24 hours): 0.0700 µg/mL (≈ 0.21 µM) | LC50 ([1]; 96 hours): 0.0647 µg/mL (≈ 0.194 µM) | LC50 ([2]; 3 hours): 0.109 µg/mL (≈ 0.327 µM) | LC50 ([2]; 6 hours): 0.0700 µg/mL (≈ 0.21 µM) | LC50 ([2]; 24 hours): 0.0470 µg/mL (≈ 0.141 µM) | LC50 ([2]; 96 hours): 0.0570 µg/mL (≈ 0.171 µM) | LC50 ([3]; 3 hours): 1.40 µg/mL (≈ 4.2 µM) | LC50 ([3]; 6 hours): 0.530 µg/mL (≈ 1.59 µM) | LC50 ([3]; 24 hours): 0.380 µg/mL (≈ 1.14 µM) | LC50 ([3]; 96 hours): 0.360 µg/mL (≈ 1.08 µM) | LC50 ([4]; 1 hour): 4.3 µg/mL (≈ 12.9 µM) | LC50 ([4]; 3 hour): 2.64 µg/mL (≈ 7.91 µM) | LC50 ([4]; 6 hours): 2.35 µg/mL (≈ 7.05 µM) | LC50 ([4]; 28 hours): 0.28 µg/mL (≈ 0.839 µM) | LC50 ([4]; 96 hours): 0.054 µg/mL (≈ 0.162 µM) | LC50 ([5]; 1 hour): 6.30 µg/mL (≈ 18.9 µM) | LC50 ([5]; 3 hour): 2.25 µg/mL (≈ 6.75 µM) | LC50 ([5]; 6 hours): 0.945 µg/mL (≈ 2.83 µM) | LC50 ([5]; 28 hours): 0.580 µg/mL (≈ 1.74 µM) | LC50 ([5]; 96 hours): 0.460 µg/mL (≈ 1.38 µM) | LC50 ([6]; 1 hour): 8 µg/mL (≈ 24 µM) | LC50 ([6]; 3 hour): 3.95 µg/mL (≈ 11.8 µM) | LC50 ([6]; 6 hours): 3 µg/mL (≈ 8.99 µM) | LC50 ([6]; 28 hours): 0.8 µg/mL (≈ 2.4 µM) | LC50 ([6]; 96 hours): 0.16 µg/mL (≈ 0.48 µM) | % kill ([7]; 0.10 mg/l): 0% | % kill ([7]; 0.15 mg/l): 10% | % kill ([7]; 0.20 mg/l): 10% | % kill ([7]; 0.30 mg/l): 80% | survival (in words) ([7]; fathead minnows, 0.30 mg/liter and lower, 50% formulation): died at 0.30 mg/liter of toxicant, but all survived lower concentrations | % kill ([8]; 0.10 mg/l): 0% | % kill ([8]; 0.15 mg/l): 0% | % kill ([8]; 0.20 mg/l): 0% | % kill ([8]; 0.30 mg/l): 40% | survival (in words) ([8]; channel catfish, 0.30 mg/liter and lower, 50% formulation): died at 0.30 mg/liter of toxicant, but all survived lower concentrations | % kill ([9]; 0.10 mg/l): 0% | % kill ([9]; 0.15 mg/l): 30% | % kill ([9]; 0.20 mg/l): 0% | % kill ([9]; 0.30 mg/l): 50% | survival (in words) ([9]; yellow perch, 0.30 mg/liter and lower, 50% formulation): died at 0.30 mg/liter of toxicant, but all survived lower concentrations | resistance relative to carp or white suckers [10]: more resistant to the toxicant than carp (Caprinus carpio) or white suckers (Castostmus commersoni)

From patent US4174406A, “Terpenylaminoalkanol fish toxicants” (priority 1977, dated 1979)
